Assays:
WS11-AldH [1] = system: T1, WS11-AldH; assay: NADH formation at […] nm, Michaelis-Menten fit; format: biochemical, Variovorax sp. WS11; details: NAD+ 5 mM, 50 mM sodium carbonate pH 10.0
T1 construct: isoprene cluster copy, on megaplasmid

AD45-AldH [2] = assay: NADH formation at […] nm, Michaelis-Menten fit; format: biochemical, Rhodococcus sp. AD45; details: NAD+ 5 mM, 50 mM sodium carbonate pH 10.0
AD45-AldH [3] = assay: NADH formation at […] nm, substrate inhibition model at high concentrations; format: biochemical, Rhodococcus sp. AD45; details: NAD+ 5 mM, 50 mM sodium carbonate pH 10.0, racemic substrate
WS11-AldH [4] = system: T1, WS11-AldH; assay: as above; format: biochemical, Variovorax sp. WS11; details: NAD+ 5 mM, 50 mM sodium carbonate pH 10.0, racemic substrate

| Structure (SMILES) | Km (WS11-AldH [1]; predicted Km, not saturated at 10 mM) [µM] | Km (AD45-AldH [2]) [µM] | Km (WS11-AldH [1]) [µM] | Km (AD45-AldH [3]) [µM] | Km (WS11-AldH [4]) [µM] |
| --- | --- | --- | --- | --- | --- |
| CCC=O [propanal] | ~10900 | 570 | – | – | – |
| CCCC=O [butanal] | – | 80 | 690 | – | – |
| CCC(C)C=O (racemic) [2-methylbutanal] | – | – | – | 30 | 120 |
